experiment: sensitometry: change in speed and practical density point versus control; details: Table I; 0.5 mmol/Ag mol isothiourea; change versus control without isothiourea
Protocol: (§1) Each coating used in obtaining the data provided in these examples was prepared on a polyester support, using a monodispersed 0.23 micrometer cubic, rhodium-doped, sulfur plus gold sensitized AgClBr(70/30) emulsion at 3.24 g/m^2 Ag, 2.35 g gel/m^2 and 1.00 g latex/m^2, where the latex is a copolymer of methyl acrylate, 2-acrylamido-2-methylpropane sulfonic acid and 2-acetoacetoxyethylmethacrylate. Sulfur and gold sensitization was provided by addition of 1.5 mg/Ag mole of 1,3-dicarboxymethyl-1,3-dimethyl-2-thiourea and 1.1 mg/Ag mole of potassium tetrachloroaurate. The silver halide emulsion also contained, in amounts of 50, 400, and 200 mg/Ag mole, respectively, the antifoggants 1-(3-acetamidophenyl)-5-mercaptotetrazole, 5-carboxy-4-hydroxy-6-methyl-2-methyl-mercapto1,3,3a,7-tetra-azaindene and 5-bromo-4-hydroxy-6-methyl-1,3,3a,7-tetraazaindene. The emulsion was spectr sensitized at 208 mg/Ag mol with a sensitizing dye of the formula: [drawing 17] and the emulsion layer was overcoated with gelatin containing polymethylmethacrylate beads. The nucleating agent was added as a methanol solution to the emulsion melts at a level of 0.2 millimoles (mM) per mole of silver. The compound employed as the nucleating agent is represented by the formula: [drawing 18]
(§2) An "incorporated booster" was added as a methanol solution in an amount of 2 g/Ag mol. The compound employed as the "incorporated booster" is represented by the formula: [drawing 19] where Pr represents n-propyl
(§3) Ballasted thioether isothioureas I to VII were incorporated n the emulsion at 0.5 mmol/Ag mol as methanol solutions. Coatings were exposed through a 0.1 Log E step tablet for five seconds to a 3000° K. tungsten light source and processed for 30 seconds at 30° C. in the developer solution. Processing was carried out in a KODAK KODAMATIC Model 42S processor.
(§4) The concentrate was diluted at a ratio of one part of concentrate to three parts of water to produce a working strength developing solution with a pH of 10.5.
(§5) An electronic image analyzer was used to scan processed unexposed samples and count the number of pepper fog spots (>10 micrometer diameter) contained in an area of 600 square millimeters. Standard sensitometry exposures were processed and analyzed to monitor speed and shoulder density effects.
(§6) Sensitometry parameters are expressed in Table I in terms of the change produced by incorporation of the ballasted thioether isothiourea versus the control which contained no isothiourea compound and was processed under identical conditions. Values are reported for speed, practical density point (PDP, a measure of shoulder development) and pepper fog (PF). Therefore, the changes in speed, practical density point and pepper fog produced by the ballasted thioether isothiourea are directly recorded in the table. By definition, the delta log speed, delta PDP and delta log PF for the control are zero.
(§7) In each of examples 1 to 7, the ballasted thioether isothiourea was employed in the form of the hydrochloride salt. Comparative test A utilized the hydrobromide salt of isothiourea compound "A" of the formula: [drawing 20] Comparative test B utilized the hydrobromide salt of isothiourea compound "B" of the formula: [drawing 21] Both compounds A and B were utilized at a concentration of 0.5 mmol/Ag mol.

Structure (SMILES) | Delta Log Speed
CCCCCCCCCCCCSC(=N)N [B, reference compound] | -0.02
CCCCCCCCSC(=N)N [Compound A, reference compound] | -0.02
CCCCCCSCCCSC(=N)N [III] | -0.02
CCCCCCCCCCSCCSC(=N)N [II] | -0.03
CCCCCCCCCCSCCCSC(=N)N [IV] | -0.01
CCCCCCSCCSC(=N)N [I] | -0.01
N=C(N)SCCSCc1ccccc1 [VII] | -0.03
N=C(N)SCCSc1ccccc1 [VI] | -0.01
CCCCSCCSC(=N)N [V] | -0.01

same assay, conditions: Table I; 0.5 mmol/Ag mol; density at 0.4 log E past speed point; Test PDP - Control PDP

Structure (SMILES) | Delta PDP (practical density point)
CCCCCCCCCCCCSC(=N)N [B, reference compound] | -0.34
CCCCCCCCSC(=N)N [Compound A, reference compound] | -0.22
CCCCCCSCCCSC(=N)N [III] | -0.36
CCCCCCCCCCSCCSC(=N)N [II] | -0.14
CCCCCCCCCCSCCCSC(=N)N [IV] | -0.39
CCCCCCSCCSC(=N)N [I] | -0.06
N=C(N)SCCSCc1ccccc1 [VII] | -0.42
N=C(N)SCCSc1ccccc1 [VI] | -0.19
CCCCSCCSC(=N)N [V] | -0.38

experiment: pepper fog spot count by electronic image analyzer, change versus control; details: Table I; 0.5 mmol/Ag mol; spots >10 micrometer diameter in 600 square millimeters; -0.3 = two times reduction
Protocol: as §1, §2, §3, §4, §5, §6, §7

Structure (SMILES) | Delta Log PF (pepper fog)
CCCCCCCCCCCCSC(=N)N [B, reference compound] | -0.07
CCCCCCCCSC(=N)N [Compound A, reference compound] | -0.12
CCCCCCSCCCSC(=N)N [III] | -0.58
CCCCCCCCCCSCCSC(=N)N [II] | -0.46
CCCCCCCCCCSCCCSC(=N)N [IV] | -0.43
CCCCCCSCCSC(=N)N [I] | -0.14
N=C(N)SCCSCc1ccccc1 [VII] | -0.86
N=C(N)SCCSc1ccccc1 [VI] | -0.48
CCCCSCCSC(=N)N [V] | -0.33

same assay, conditions: from Table I; versus control

Structure (SMILES) | reduction in pepper fog (in words)
CCCCCCCCCCCCSC(=N)N [B, reference compound] | also reduced pepper fog, but to a much lesser extent
CCCCCCCCSC(=N)N [Compound A, reference compound] | also reduced pepper fog, but to a much lesser extent
N=C(N)SCCSCc1ccccc1 [VII] | reducing pepper fog by a factor of almost ten times

experiment: image spread: halftone dot growth rate during development; details: Table II; 0.5 mmol/Ag mol; control 0.63 microns/sec
Protocol: as §1, §2, §3
Each of the coatings was also analyzed for the effect upon image spread of the incorporation of the isothiourea compound.
Image spread measurements were performed by following the growth in diameter of halftone dots with development time. The films were contact exposed to a 52 line/cm 90% tint to produce a 10% exposed dot pattern. The films were then developed in a device that measures the infrared (IR) density during development. The integrated IR halftone density of the developing tint pattern was converted to the equivalent dot diameter using the relation between integrated density and percent dot area. The resulting plots of increasing dot diameter with development time were linear (constant dot growth rate) during the first 60 to 90 seconds of development.

Structure (SMILES) | Dot Growth Rate [microns/sec]
CCCCCCCCCCCCSC(=N)N [B, reference compound] | 0.62
CCCCCCCCSC(=N)N [Compound A, reference compound] | 0.62
CCCCCCSCCCSC(=N)N [III] | 0.54
CCCCCCCCCCSCCSC(=N)N [II] | 0.58
CCCCCCCCCCSCCCSC(=N)N [IV] | 0.58
CCCCCCSCCSC(=N)N [I] | 0.55
N=C(N)SCCSCc1ccccc1 [VII] | 0.54
N=C(N)SCCSc1ccccc1 [VI] | 0.60
CCCCSCCSC(=N)N [V] | 0.57

same assay, conditions: from Table II; versus control, silver chlorobromide emulsion

Structure (SMILES) | reduction of dot growth rate (in words)
CCCCCCCCCCCCSC(=N)N [B, reference compound] | ineffective in reducing dot growth rate
CCCCCCCCSC(=N)N [Compound A, reference compound] | ineffective in reducing dot growth rate

— patent US5196292A, “Nucleated high contrast photographic elements containing ballasted thioether isothioureas to inhibit pepper fog and restrain image spread” (priority 1991, dated 1993)
